# Values of other authors as cited in patent US20160317610A1, “COMPOSITIONS AND METHODS FOR TREATING OVARIAN CANCER INCLUDING PREVENTING THE […]” (University of Southern California, priority 2013, published 2016).
# Test system: advanced OC
structure (smiles),measurement,value
"CC(C)[C@H]1C(=O)N[C@@H](CCCN=C(N)N)C(=O)NCC(=O)N[C@@H](CC(=O)O)C(=O)N[C@H](Cc2ccccc2)C(=O)N1C [Cilengitide, cyclo(L-Arg-Gly-L-Asp-D-Phe-N-methyl-L-Val)]",clinical efficacy,failed to show clinical efficacy
